# Test results: patent US20260199383A1 (priority 2022, published 2026)
# Read-outs that look alike come from different tables or passages of the source.
# Assays:
# CuFi-1 cells [1] = assay: Fluorescence microscopic assay of airway surface liquid (ASL) pH in CuFi-1 cells; type: cell-based, human
# Method: Cell Lines and Growth Conditions. NuLi, CuFi-1, and CuFi-4 cells (Welsh Laboratory, University of Iowa) were grown from cryostock on Thermo Scientific BioLite Cell Culture Treated 75 cm^2 flasks. These flasks were previously coated with 4 mL of 60 μg/mL human placental collagen type IV (Sigma-Aldrich) for a minimum of 1 h at 37° C., rinsed twice with PBS, and then dried before seeding. The cells were cultured with 12 mL Bronchial Epithelial Cell Growth Medium (BEGM) BulletKit (Lonza CC-3170), which includes the basal medium and eight SingleQuots of supplements (bovine pituitary extract (BPE), 2 mL; hydrocortisone, 0.5 mL; hEGF, 0.5 mL; adrenaline, 0.5 mL; transferrin, 0.5 mL; insulin, 0.5 mL; retinoic acid, 0.5 mL; triiodothyronine, 0.5 mL). The gentamicin-AmB aliquot was discarded, and the medium was instead supplemented with 50 μg/mL penicillin-streptomycin (Corning Cellgro), 50 μg/mL gentamicin (Sigma-Aldrich G1397), and 2 μg/mL fluconazole (Sigma-Aldrich). […]
# Fluorescence Microscopic Assay for Measurement of Airway Surface Liquid pH. […] Following dissolution in methanol, the AmB concentration in the stock suspension was measured in triplicate by absorbance spectroscopy. Concentrations were calculated from the absorbance at 406 nm (8406=164,000 M^−1 cm^−1) using Beer's law. […]
# Small-diameter NuLi and CuFi cells were used for measurement of the ASL pH. […] ASL pH was measured 2 h later. […]
# [2] = tested on: primary cultured airway epithelial cells from individuals with CF; details: Primary human CF, 2 μM, ref [1], cited from earlier work
# [3] = Solubility of AmB in aqueous media; type: physicochemical; details: 37° C.
# [4] = cited from earlier work
# CuFi-1 cells [5] = details: cited from earlier work; for ASL pH / ΔpH: ref [1]; for ΔpH: vs vehicle control
# CuFi-4 cells = details: cited from earlier work
# [6] = Particle size of wet-milled AmB suspensions (Malvern Mastersizer); type: physicochemical
compound,measurement,setting,value
"C[C@@H]1[C@H](O)[C@@H](C)/C=C/C=C/C=C/C=C/C=C/C=C/C=C/[C@H](O[C@@H]2O[C@H](C)[C@@H](O)[C@H](N)[C@@H]2O)C[C@@H]2O[C@](O)(C[C@@H](O)C[C@@H](O)[C@H](O)CC[C@@H](O)C[C@@H](O)CC(=O)O[C@H]1C)C[C@H](O)[C@H]2C(=O)O [AmB, amphotericin B]",effect on ASL pH,"CuFi-1 cells [1]; CuFi-1, 2 μM in perfluorocarbon vehicle",effective
same,effect on ASL pH,"CuFi-1 cells [1]; CuFi-1, 50 μM AmB",not at a 50 μM AmB concentration
same,ASL pH,[2],6.97
same,ΔpH,[2]; vs vehicle control,+0.21
same,solubility in Gamble's solution,[3],0.2 µg/mL
same,solubility in dilute Alveofact,[3],0.2 µg/mL
same,solubility in water,[3],0.5 µg/mL
same,pKa amine group on the mycosamine ring,[4],10.0
same,pKa carboxylate group,[4],5.7
same,ASL pH,"CuFi-1 cells [5]; CuFi-1, 2 μM",7.06
same,ΔpH,"CuFi-1 cells [5]; CuFi-1, 2 μM",+0.18
same,ASL pH,"CuFi-1 cells [5]; CuFi-1, 50 μM",6.80
same,ΔpH,"CuFi-1 cells [5]; CuFi-1, 50 μM",+0.02
"CC(C)(C)c1cc(C(C)(C)C)c(NC(=O)c2c[nH]c3ccccc3c2=O)cc1O [Ivacaftor, ivacaftor]",ASL pH,"CuFi-4 cells; CuFi-4, 2 μM, ref [1]",6.92
same,ΔpH,"CuFi-4 cells; CuFi-4, 2 μM, vs vehicle control, ref [1]",+0.17
same,increase in ASL pH,CuFi-4 cells; CuFi-4 cells,about 0.2 pH units
same,ASL pH,"CuFi-1 cells [5]; CuFi-1, 2 μM",6.82
same,ΔpH,"CuFi-1 cells [5]; CuFi-1, 2 μM",+0.07
same,increase in ASL pH,CuFi-1 cells [5]; CuFi-1 cells with homozygous ΔF508 mutations,minimal increase in ASL pH
"C[C@@H]1[C@H](O)[C@@H](C)/C=C/C=C/C=C/C=C/C=C/C=C/C=C/[C@H](O[C@@H]2O[C@H](C)[C@@H](O)[C@H](N)[C@@H]2O)C[C@@H]2O[C@](O)(C[C@@H](O)C[C@@H](O)[C@H](O)CC[C@@H](O)C[C@@H](O)CC(=O)O[C@H]1C)C[C@H](O)[C@H]2C(=O)O [′202, amphotericin B]",Primary Particle Size X50 after wet-milling,[6]; 1 pass (15 kpsi),3.01 μm
same,Primary Particle Size X90 after wet-milling,[6]; 1 pass (15 kpsi),6.93 μm
same,Primary Particle Size X50 after wet-milling,"[6]; 3 passes (15, 15, 20 kpsi)",2.16 μm
same,Primary Particle Size X90 after wet-milling,"[6]; 3 passes (15, 15, 20 kpsi)",5.99 μm
"C[C@@H]1[C@H](O)[C@@H](C)/C=C/C=C/C=C/C=C/C=C/C=C/C=C/[C@H](O[C@@H]2O[C@H](C)[C@@H](O)[C@H](N)[C@@H]2O)C[C@@H]2O[C@](O)(C[C@@H](O)C[C@@H](O)[C@H](O)CC[C@@H](O)C[C@@H](O)CC(=O)O[C@H]1C)C[C@H](O)[C@H]2C(=O)O [′203, amphotericin B]",Primary Particle Size X50 after wet-milling,[6]; 1 pass (15 kpsi),1.14 μm
same,Primary Particle Size X90 after wet-milling,[6]; 1 pass (15 kpsi),2.46 μm
same,Primary Particle Size X50 after wet-milling,"[6]; 3 passes (15, 15, 20 kpsi)",1.06 μm
same,Primary Particle Size X90 after wet-milling,"[6]; 3 passes (15, 15, 20 kpsi)",2.14 μm
